Assay results: PubChem BioAssay AID248 (DTP/NCI, 2004)
“And” between values parts separate entries of the source, which are not always exact repeats. Identical values can stand only once. Inconclusive results and toxic doses are left out. No stated cut-off is given here; in the data, active means T/C of 150% or more; inactive means T/C below 125%.

Test system: L1210 leukemia ip in BDF1 mice, survival T/C
Assay: NCI In Vivo Anticancer Drug Screen. Data for tumor model L1210 Leukemia (intraperitoneal) in B6D2F1 (BDF1) mice
Settings: endpoint: mean survival time, higher = longer survival
Method in brief: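 Ratio derived from survival: compound-dosed mice over vehicle-dosed mice, all bearing a transplantable tumor.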

[1] = dose: 100.0 mg/kg/injection, schedule: Q04DX002 (ip), vehicle: Klucel (hydroxypropylcellulose) (HPC)
[2] = dose: 200.0 mg/kg/injection, schedule: Q04DX002 (ip), vehicle: Klucel (hydroxypropylcellulose) (HPC)
[3] = dose: 100.0 mg/kg/injection, schedule: Q04DX003 (ip), vehicle: saline
[4] = dose: 200.0 mg/kg/injection, schedule: Q04DX003 (ip), vehicle: saline
[5] = dose: 400.0 mg/kg/injection, schedule: Q04DX003 (ip), vehicle: saline
[6] = dose: 50.0 mg/kg/injection, schedule: Q04DX002 (ip), vehicle: saline
[7] = dose: 100.0 mg/kg/injection, schedule: Q04DX002 (ip), vehicle: saline
[8] = dose: 100.0 mg/kg/injection, schedule: Q04DX002 (ip), vehicle: saline with Tween-80
[9] = dose: 200.0 mg/kg/injection, schedule: Q04DX002 (ip), vehicle: saline with Tween-80
[10] = dose: 400.0 mg/kg/injection, schedule: Q04DX002 (ip), vehicle: saline with Tween-80
[11] = dose: 400.0 mg/kg/injection, schedule: Q04DX003 (ip), vehicle: Klucel (hydroxypropylcellulose) (HPC)
[12] = dose: 100.0 mg/kg/injection, schedule: Q01DX001 (ip), vehicle: saline with Tween-80
[13] = dose: 200.0 mg/kg/injection, schedule: Q01DX001 (ip), vehicle: saline with Tween-80

Measured: T/C

CCN1/C(=C/C(C)=C/c2sc3ccccc3[n+]2CC)Sc2ccccc21
inactive: dose: 1.25 mg/kg/injection, schedule: Q01DX001 (ip), vehicle: other 111 % of control | dose: 2.5 mg/kg/injection, schedule: Q01DX001 (ip), vehicle: other 97 % of control | dose: 5.0 mg/kg/injection, schedule: Q01DX001 (ip), vehicle: other 103 % of control | dose: 25.0 micrograms/kg/injection, schedule: Q01DX001 (ip), vehicle: saline 98 % of control | dose: 25.0 micrograms/kg/injection, schedule: Q01DX009 (ip), vehicle: Klucel (hydroxypropylcellulose) (HPC) 100 % of control | dose: 50.0 micrograms/kg/injection, schedule: Q01DX001 (ip), vehicle: saline 93 % of control | dose: 50.0 micrograms/kg/injection, schedule: Q01DX009 (ip), vehicle: Klucel (hydroxypropylcellulose) (HPC) 101 % of control | dose: 100.0 micrograms/kg/injection, schedule: Q01DX001 (ip), vehicle: saline 104 % of control | dose: 100.0 micrograms/kg/injection, schedule: Q01DX009 (ip), vehicle: Klucel (hydroxypropylcellulose) (HPC) 108 % of control | dose: 200.0 micrograms/kg/injection, schedule: Q01DX001 (ip), vehicle: saline 96 % of control | dose: 200.0 micrograms/kg/injection, schedule: Q01DX009 (ip), vehicle: Klucel (hydroxypropylcellulose) (HPC) 104 % of control | dose: 200.0 micrograms/kg/injection, schedule: Q01DX015 (ip), vehicle: saline 105 % of control | dose: 400.0 micrograms/kg/injection, schedule: Q01DX009 (ip), vehicle: Klucel (hydroxypropylcellulose) (HPC) 97 % of control

CCOC(=O)CNC(=O)Oc1cc(C)c(Cl)cc1C
inactive: dose: 100.0 mg/kg/injection, schedule: Q01DX001 (ip), vehicle: carboxymethylcellulose (CMC) 100 % of control and 110 % of control | dose: 100.0 mg/kg/injection, schedule: Q01DX009 (ip), vehicle: carboxymethylcellulose (CMC) 89 % of control | dose: 100.0 mg/kg/injection, schedule: Q04DX002 (ip), vehicle: carboxymethylcellulose (CMC) 93 % of control and 96 % of control | dose: 100.0 mg/kg/injection, schedule: Q04DX003 (ip), vehicle: carboxymethylcellulose (CMC) 101 % of control and 90 % of control | dose: 200.0 mg/kg/injection, schedule: Q01DX001 (ip), vehicle: carboxymethylcellulose (CMC) 106 % of control and 109 % of control | dose: 200.0 mg/kg/injection, schedule: Q01DX009 (ip), vehicle: carboxymethylcellulose (CMC) 95 % of control | dose: 200.0 mg/kg/injection, schedule: Q04DX002 (ip), vehicle: carboxymethylcellulose (CMC) 98 % of control and 99 % of control | dose: 200.0 mg/kg/injection, schedule: Q04DX003 (ip), vehicle: carboxymethylcellulose (CMC) 94 % of control and 103 % of control | dose: 400.0 mg/kg/injection, schedule: Q01DX001 (ip), vehicle: carboxymethylcellulose (CMC) 102 % of control and 103 % of control | dose: 400.0 mg/kg/injection, schedule: Q01DX009 (ip), vehicle: carboxymethylcellulose (CMC) 100 % of control | dose: 400.0 mg/kg/injection, schedule: Q04DX002 (ip), vehicle: carboxymethylcellulose (CMC) 95 % of control and 99 % of control | dose: 400.0 mg/kg/injection, schedule: Q04DX003 (ip), vehicle: carboxymethylcellulose (CMC) 97 % of control and 87 % of control

CN1C(=O)CN(CCN2CC(=O)N(C)C2=S)C1=S
inactive: [1] 105 % of control | [2] 97 % of control | dose: 400.0 mg/kg/injection, schedule: Q04DX002 (ip), vehicle: Klucel (hydroxypropylcellulose) (HPC) 90 % of control

COc1ccc(C2=CC(c3ccccc3)C(c3ccccc3)C(=O)N2)cc1 (stereo not given)
inactive: dose: 6.25 mg/kg/injection, schedule: Q04DX002 (ip), vehicle: saline with Tween-80 100 % of control | dose: 12.5 mg/kg/injection, schedule: Q04DX002 (ip), vehicle: saline with Tween-80 100 % of control | dose: 25.0 mg/kg/injection, schedule: Q04DX002 (ip), vehicle: saline with Tween-80 92 % of control

O=S(=O)(O)c1ccc(Br)cc1
inactive: dose: 100.0 mg/kg/injection, schedule: Q01DX009 (ip), vehicle: saline 116 % of control | [3] 98 % of control | dose: 200.0 mg/kg/injection, schedule: Q01DX009 (ip), vehicle: saline 108 % of control | [4] 103 % of control | dose: 400.0 mg/kg/injection, schedule: Q01DX009 (ip), vehicle: saline 108 % of control | [5] 104 % of control

O=C(OCCBr)c1ccccc1[N+](=O)[O-]
inactive: [3] 105 % of control | [4] 97 % of control | [5] 100 % of control

Cc1cccc(CN=C(N)CCl)n1
inactive: [1] 98 % of control | [2] 95 % of control

NC(CCl)=NC1CN2CCC1CC2 (stereo not given)
inactive: dose: 25.0 mg/kg/injection, schedule: Q04DX002 (ip), vehicle: saline 101 % of control | [6] 90 % of control | [7] 102 % of control

C/C=C/c1ccc2oc(-c3ccc(OC4OC(C)C(O)C(O)C4O)cc3)c(C)c2c1 (stereo not given)
inactive: dose: 100.0 mg/kg/injection, schedule: Q01DX001 (ip), vehicle: Klucel (hydroxypropylcellulose) (HPC) 93 % of control | dose: 200.0 mg/kg/injection, schedule: Q01DX001 (ip), vehicle: Klucel (hydroxypropylcellulose) (HPC) 90 % of control | dose: 400.0 mg/kg/injection, schedule: Q01DX001 (ip), vehicle: Klucel (hydroxypropylcellulose) (HPC) 96 % of control

CC(=O)n1cc(/C=C2\N=C(c3ccc([N+](=O)[O-])cc3)OC2=O)c2ccccc21
inactive: [8] 95 % of control | [9] 109 % of control | [10] 92 % of control

O=C1Cc2c(Cl)cccc2C(=S)N1
inactive: dose: 100.0 mg/kg/injection, schedule: Q01DX009 (ip), vehicle: saline sonified 95 % of control | dose: 100.0 mg/kg/injection, schedule: Q04DX003 (ip), vehicle: saline with Tween-80 95 % of control | dose: 200.0 mg/kg/injection, schedule: Q01DX009 (ip), vehicle: saline sonified 91 % of control | dose: 200.0 mg/kg/injection, schedule: Q04DX003 (ip), vehicle: saline with Tween-80 93 % of control | dose: 400.0 mg/kg/injection, schedule: Q01DX009 (ip), vehicle: saline sonified 98 % of control | dose: 400.0 mg/kg/injection, schedule: Q04DX003 (ip), vehicle: saline with Tween-80 92 % of control

Cc1ccccc1SSc1ccccc1C
inactive: dose: 100.0 mg/kg/injection, schedule: Q04DX003 (ip), vehicle: Klucel (hydroxypropylcellulose) (HPC) 94 % of control | dose: 200.0 mg/kg/injection, schedule: Q04DX003 (ip), vehicle: Klucel (hydroxypropylcellulose) (HPC) 97 % of control | [11] 91 % of control

NC1CC2CCC1C2 (stereo not given)
inactive: dose: 50.0 mg/kg/injection, schedule: Q01DX001 (ip), vehicle: saline with Tween-80 98 % of control | [6] 93 % of control | [12] 98 % of control | [7] 100 % of control | [13] 103 % of control

CC(C)(C)c1cc(C#N)cc(Br)c1OP(=O)(Oc1c(Br)cc(C#N)cc1C(C)(C)C)c1ccccc1
inactive: [8] 95 % of control | [9] 92 % of control | [10] 97 % of control

CCC(CC)=NNS(=O)(=O)c1ccccc1
inactive: dose: 75.0 mg/kg/injection, schedule: Q01DX001 (ip), vehicle: saline 100 % of control | dose: 150.0 mg/kg/injection, schedule: Q01DX001 (ip), vehicle: saline 100 % of control | dose: 300.0 mg/kg/injection, schedule: Q01DX001 (ip), vehicle: saline 102 % of control

COc1nc(Br)ccc1/C=N\NC(N)=S
inactive: dose: 10.0 mg/kg/injection, schedule: Q04DX003 (ip), vehicle: Klucel (hydroxypropylcellulose) (HPC) 101 % of control | dose: 20.0 mg/kg/injection, schedule: Q04DX003 (ip), vehicle: Klucel (hydroxypropylcellulose) (HPC) 95 % of control | [11] 98 % of control

CC1(C)CN(C(C)(C)C)CC(C)(C)C(O)C1=O (stereo not given)
inactive: [12] 96 % of control | [13] 91 % of control | dose: 400.0 mg/kg/injection, schedule: Q01DX001 (ip), vehicle: saline with Tween-80 93 % of control

CC1(C)C(=O)C(C)(C)C1O
inactive: dose: 50.0 mg/kg/injection, schedule: Q04DX003 (ip), vehicle: saline 95 % of control | dose: 75.0 mg/kg/injection, schedule: Q01DX001 (ip), vehicle: acetone 106 % of control | dose: 100.0 mg/kg/injection, schedule: Q01DX001 (ip), vehicle: saline 97 % of control | [3] 93 % of control | dose: 150.0 mg/kg/injection, schedule: Q01DX001 (ip), vehicle: acetone 104 % of control | dose: 200.0 mg/kg/injection, schedule: Q01DX001 (ip), vehicle: saline 111 % of control | [4] 87 % of control | dose: 300.0 mg/kg/injection, schedule: Q01DX001 (ip), vehicle: acetone 106 % of control
